The target in this assay is T1, IL-23R (Homo sapiens, UniProt Q5VWK5).
T1 construct: HEK293 cells containing IL-23R, IL-12RP31 and a firefly luciferase reporter gene driven by a STAT-inducible promoter (Promega); host or cells: HEK293
T1 sequence (Q5VWK5 24-629): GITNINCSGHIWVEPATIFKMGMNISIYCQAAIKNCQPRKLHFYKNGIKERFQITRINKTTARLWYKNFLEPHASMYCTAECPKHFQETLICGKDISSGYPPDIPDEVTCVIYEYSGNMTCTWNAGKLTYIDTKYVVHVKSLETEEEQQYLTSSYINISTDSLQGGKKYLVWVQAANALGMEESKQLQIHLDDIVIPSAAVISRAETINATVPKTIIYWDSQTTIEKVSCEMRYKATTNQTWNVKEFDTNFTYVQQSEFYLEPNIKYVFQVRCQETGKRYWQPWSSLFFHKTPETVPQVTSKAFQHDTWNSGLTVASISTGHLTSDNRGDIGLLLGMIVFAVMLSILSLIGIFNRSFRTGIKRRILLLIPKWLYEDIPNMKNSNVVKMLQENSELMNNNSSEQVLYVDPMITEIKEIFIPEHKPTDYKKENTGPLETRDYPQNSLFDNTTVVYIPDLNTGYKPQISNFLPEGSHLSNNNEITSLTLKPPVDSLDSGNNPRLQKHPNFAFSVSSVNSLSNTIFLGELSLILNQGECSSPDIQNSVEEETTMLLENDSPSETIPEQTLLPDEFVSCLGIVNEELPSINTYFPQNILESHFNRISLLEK
In words: IL23R Reporter Assay. The class given is cell-based. In a few lines: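 Luminescence from BioGlo, read after cells were moved to 20 °C, followed a 5 h incubation at 37 °C, 5% CO2 with DMSO-diluted test compounds.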

Molecules are shown by their SMILES. pIC50: −log10 of the molar value. Starred links: 1 amine or outer side, 2 acyl side, 3 side chain; linkers in the order of their positions; H or OH if unused. Positions of bridges follow the written chain, without caps; N, C: chain ends. Non-standard residues stand in square brackets, D forms with d. Residues, ends and D or L forms follow the SMILES beside them. Groups on a side chain read outwards from the residue. *: point of attachment. Trp(7-Me) = Cc1cccc2c(C[C@H](N)C(=O)O)c[nH]c12; C20 diacid = O=C(O)CCCCCCCCCCCCCCCCCCC(=O)*; C18 diacid = O=C(O)CCCCCCCCCCCCCCCCC(=O)*; γGlu = O=C(O)[C@H](CCC(=O)[*:2])N[*:1]; 2Nal = N[C@@H](Cc1ccc2ccccc2c1)C(=O)O; AEF = NCCOc1ccc(C[C@H](N)C(=O)O)cc1; Stearoyl = CCCCCCCCCCCCCCCCCC(=O)*; Palmitoyl = CCCCCCCCCCCCCCCC(=O)*; 3Pal = N[C@@H](Cc1cccnc1)C(=O)O; Pen = CC(C)(S)[C@H](N)C(=O)O; Thp = NC1(C(=O)O)CCOCC1; AEEA = NCCOCCOCC(=O)O; Sar = CNCC(=O)O

One may read the pIC50 as the negative decadic logarithm of the IC50, by convention in mol/L. Lower therefore signals a large IC50. In turn, `CC(=O)NCCCC[C@@H]1NC(=O)[C@H](Cc2c[nH]c3c(C)cccc23)NC(=O)[C@H]([C@@H](C)O)NC(=O)[C@H](CC(N)=O)NC(=O)[C@@H](NC(=O)[C@@H](CCCNC(=N)N)NC(C)=O)C(C)(C)SSC(C)(C)[C@@H](C(=O)N[C@@H](Cc2ccc(OCCN)cc2)C(=O)N[C@@H](Cc2ccc3ccccc3c2)C(=O)NC2(C(=O)N[C@@H](CCCCNC(=O)COCCOCCNC(=O)COCCOCCNC(=O)[C@@H]3CCCN3C(=O)[C@@H]3CCCN3C(=O)[C@@H]3CCCN3C(=O)CCCCCCCCCCCCCCCCC(=O)O)C(=O)N[C@@H](CC(N)=O)C(=O)N[C@@H](Cc3cccnc3)C(=O)N(C)CC(N)=O)CCOCC2)NC1=O` [Example 65, MeCO-r-Pen*-N-T-7MeW-K(Ac)-Pen*-AEF-2Nal-THP-K(PEG2PEG2PPPC18OH)-N-3Pya-Sar-CONH2] (Ac-[dR][Pen]NT[Trp(7-Me)]K(Ac)[Pen][AEF][2Nal][Thp]K([AEEA-AEEA-Pro-Pro-Pro-C18 diacid])N[3Pal][Sar]-NH2; disulfide 2-7) showed a negative-log IC50 (pIC50) of 9.72. In turn, `CCCCCCCCCCCCCCCCCC(=O)N[C@@H](CCC(=O)NCCCC[C@@H](NC(C)=O)C(=O)N[C@@H]1C(=O)N[C@@H](CC(N)=O)C(=O)N[C@@H]([C@@H](C)O)C(=O)N[C@@H](Cc2c[nH]c3c(C)cccc23)C(=O)N[C@@H](CCCCNC(C)=O)C(=O)N[C@H](C(=O)N[C@@H](Cc2ccc(OCCN)cc2)C(=O)N[C@@H](Cc2ccc3ccccc3c2)C(=O)NC2(C(=O)N[C@@H](CCCCNC(C)=O)C(=O)N[C@@H](CC(N)=O)C(=O)N[C@@H](Cc3cccnc3)C(=O)N(C)CC(N)=O)CCOCC2)C(C)(C)SSC1(C)C)C(=O)O` [Example 68, MeCO-k(gEC18)-Pen*-N-T-7MeW-K(Ac)-Pen*-AEF-2Nal-THP-K(Ac)-N-3Pya-Sar-CONH2] (Ac-[dK]([γGlu-Stearoyl])[Pen]NT[Trp(7-Me)]K(Ac)[Pen][AEF][2Nal][Thp]K(Ac)N[3Pal][Sar]-NH2; disulfide 2-7) gave a pIC50 of 10.43.

`CCCCCCCCCCCCCCCC(=O)N[C@@H](CCC(=O)NCCCC[C@@H]1NC(=O)[C@@H](NC(=O)[C@@H](CCCNC(=N)N)NC(C)=O)C(C)(C)SSC(C)(C)[C@@H](C(=O)N[C@@H](Cc2ccc(OCCN)cc2)C(=O)N[C@@H](Cc2ccc3ccccc3c2)C(=O)NC2(C(=O)N[C@@H](CCCCNC(C)=O)C(=O)N[C@@H](CC(N)=O)C(=O)N[C@@H](Cc3cccnc3)C(=O)N(C)CC(N)=O)CCOCC2)NC(=O)[C@H](CCCCNC(C)=O)NC(=O)[C@H](Cc2c[nH]c3c(C)cccc23)NC(=O)[C@H]([C@@H](C)O)NC1=O)C(=O)O` [Example 69, MeCO-r-Pen*-K(gEC16)-T-7MeW-K(Ac)-Pen*-AEF-2Nal-THP-K(Ac)-N-3Pya-Sar-CONH2] (Ac-[dR][Pen]K([γGlu-Palmitoyl])T[Trp(7-Me)]K(Ac)[Pen][AEF][2Nal][Thp]K(Ac)N[3Pal][Sar]-NH2; disulfide 2-7) had a negative-log IC50 (pIC50) of 9.89. The compound `CCCCCCCCCCCCCCCC(=O)N[C@@H](CCC(=O)NCCCC[C@H](NC(=O)C1(NC(=O)[C@H](Cc2ccc3ccccc3c2)NC(=O)[C@H](Cc2ccc(OCCN)cc2)NC(=O)[C@H]2NC(=O)[C@H](CCCCNC(C)=O)NC(=O)[C@H](Cc3c[nH]c4c(C)cccc34)NC(=O)[C@H]([C@@H](C)O)NC(=O)[C@H](CC(N)=O)NC(=O)[C@@H](NC(C)=O)C(C)(C)SSC2(C)C)CCOCC1)C(=O)N[C@@H](CC(N)=O)C(=O)N[C@@H](Cc1cccnc1)C(=O)N(C)CC(N)=O)C(=O)O` [Example 75, MeCO-Pen*-N-T-7MeW-K(Ac)-Pen*-AEF-2Nal-THP-K(gEC16)-N-3Pya-Sar-CONH2] (Ac-[Pen]NT[Trp(7-Me)]K(Ac)[Pen][AEF][2Nal][Thp]K([γGlu-Palmitoyl])N[3Pal][Sar]-NH2; disulfide 1-6) showed a pIC50 of 10.02. Take `CCCCCCCCCCCCCCCC(=O)N[C@@H](CCC(=O)NCCOCCOCC(=O)NCCOCCOCC(=O)NCCCC[C@@H]1NC(=O)[C@@H](NC(C)=O)C(C)(C)SSC(C)(C)[C@@H](C(=O)N[C@@H](Cc2ccc(OCCN)cc2)C(=O)N[C@@H](Cc2ccc3ccccc3c2)C(=O)NC2(C(=O)N[C@@H](CCCCNC(C)=O)C(=O)N[C@@H](CC(N)=O)C(=O)N[C@@H](Cc3cccnc3)C(=O)N(C)CC(N)=O)CCOCC2)NC(=O)[C@H](CCCCNC(C)=O)NC(=O)[C@H](Cc2c[nH]c3c(C)cccc23)NC(=O)[C@H]([C@@H](C)O)NC1=O)C(=O)O` [Example 83, MeCO-Pen*-K(PEG2PEG2gEC16)-T-7MeW-K(Ac)-Pen*-AEF-2Nal-THP-K(Ac)-N-3Pya-Sar-CONH2] (Ac-[Pen]K([AEEA-AEEA-γGlu-Palmitoyl])T[Trp(7-Me)]K(Ac)[Pen][AEF][2Nal][Thp]K(Ac)N[3Pal][Sar]-NH2; disulfide 1-6): the negative logarithm of the IC50 (pIC50) is 10.28.

Compound `CC(=O)NCCCC[C@H](NC(=O)C1(NC(=O)[C@H](Cc2ccc3ccccc3c2)NC(=O)[C@H](Cc2ccc(OCCN)cc2)NC(=O)[C@H]2NC(=O)[C@H](CCCCNC(=O)COCCOCCNC(=O)COCCOCCNC(=O)CC[C@H](NC(=O)CCCCCCCCCCCCCCCCC(=O)O)C(=O)O)NC(=O)[C@H](Cc3c[nH]c4c(C)cccc34)NC(=O)[C@H]([C@@H](C)O)NC(=O)[C@H](CC(N)=O)NC(=O)[C@@H](NC(=O)[C@@H](CCCNC(=N)N)NC(C)=O)C(C)(C)SSC2(C)C)CCOCC1)C(=O)N[C@@H](CC(N)=O)C(=O)N[C@@H](Cc1cccnc1)C(=O)N(C)CC(N)=O` [Example 88, MeCO-r-Pen*-N-T-7MeW-K(PEG2PEG2gEC18OH)-Pen*-AEF-2Nal-THP-K(Ac)-N-3Pya-Sar-CONH2] (Ac-[dR][Pen]NT[Trp(7-Me)]K([AEEA-AEEA-γGlu-C18 diacid])[Pen][AEF][2Nal][Thp]K(Ac)N[3Pal][Sar]-NH2; disulfide 2-7) gave a pIC50 of 9.70.

Compound `CC(=O)NCCCC[C@@H]1NC(=O)[C@H](Cc2c[nH]c3c(C)cccc23)NC(=O)[C@H]([C@@H](C)O)NC(=O)[C@H](CC(N)=O)NC(=O)[C@@H](NC(C)=O)C(C)(C)SSC(C)(C)[C@@H](C(=O)N[C@@H](Cc2ccc(OCCN)cc2)C(=O)N[C@@H](Cc2ccc3ccccc3c2)C(=O)NC2(C(=O)N[C@@H](CCCCNC(=O)CC[C@H](NC(=O)CCCCCCCCCCCCCCCCCCC(=O)O)C(=O)O)C(=O)N[C@@H](CC(N)=O)C(=O)N[C@@H](Cc3cccnc3)C(=O)N(C)CC(N)=O)CCOCC2)NC1=O` [Example 89, MeCO-Pen*-N-T-7MeW-K(Ac)-Pen*-AEF-2Nal-THP-K(gEC20OH)-N-3Pya-Sar-CONH2] (Ac-[Pen]NT[Trp(7-Me)]K(Ac)[Pen][AEF][2Nal][Thp]K([γGlu-C20 diacid])N[3Pal][Sar]-NH2; disulfide 1-6) had a negative logarithm of the IC50 (pIC50) of 9.47. `CC(=O)NCCCC[C@@H]1NC(=O)[C@H](Cc2c[nH]c3c(C)cccc23)NC(=O)[C@H]([C@@H](C)O)NC(=O)[C@H](CCCCNC(=O)COCCOCCNC(=O)COCCOCCNC(=O)[C@@H]2CCCN2C(=O)CC[C@H](NC(=O)CCCCCCCCCCCCCCCCC(=O)O)C(=O)O)NC(=O)[C@@H](NC(=O)[C@@H](CCCNC(=N)N)NC(C)=O)C(C)(C)SSC(C)(C)[C@@H](C(=O)N[C@@H](Cc2ccc(OCCN)cc2)C(=O)N[C@@H](Cc2ccc3ccccc3c2)C(=O)NC2(C(=O)N[C@@H](CCCCNC(C)=O)C(=O)N[C@@H](CC(N)=O)C(=O)N[C@@H](Cc3cccnc3)C(=O)N(C)CC(N)=O)CCOCC2)NC1=O` [Example 95, MeCO-r-Pen*-K(PEG2PEG2PgEC18OH)-T-7MeW-K(Ac)-Pen*-AEF-2Nal-THP-K(Ac)-N-3Pya-Sar-CONH2] (Ac-[dR][Pen]K([AEEA-AEEA-Pro-γGlu-C18 diacid])T[Trp(7-Me)]K(Ac)[Pen][AEF][2Nal][Thp]K(Ac)N[3Pal][Sar]-NH2; disulfide 2-7): the negative-log IC50 (pIC50) is 9.85. As for `CC(=O)NCCCC[C@@H]1NC(=O)[C@H](Cc2c[nH]c3c(C)cccc23)NC(=O)[C@H]([C@@H](C)O)NC(=O)[C@H](CCCCNC(=O)COCCOCCNC(=O)COCCOCCNC(=O)[C@H]2CCCN2C(=O)CC[C@H](NC(=O)CCCCCCCCCCCCCCCCC(=O)O)C(=O)O)NC(=O)[C@@H](NC(=O)[C@@H](CCCNC(=N)N)NC(C)=O)C(C)(C)SSC(C)(C)[C@@H](C(=O)N[C@@H](Cc2ccc(OCCN)cc2)C(=O)N[C@@H](Cc2ccc3ccccc3c2)C(=O)NC2(C(=O)N[C@@H](CCCCNC(C)=O)C(=O)N[C@@H](CC(N)=O)C(=O)N[C@@H](Cc3cccnc3)C(=O)N(C)CC(N)=O)CCOCC2)NC1=O` [Example 96, MeCO-r-Pen*-K(PEG2PEG2pgEC18OH)-T-7MeW-K(Ac)-Pen*-AEF-2Nal-THP-K(Ac)-N-3Pya-Sar-CONH2] (Ac-[dR][Pen]K([AEEA-AEEA-dP-γGlu-C18 diacid])T[Trp(7-Me)]K(Ac)[Pen][AEF][2Nal][Thp]K(Ac)N[3Pal][Sar]-NH2; disulfide 2-7), the pIC50 was 9.89.

The record behind these values is patent US12478617B2, “Lipidated peptide inhibitors of interleukin-23 receptor” (JANSSEN BIOTECH, INC., priority 2021, dated 2025).
